Results from BindingDB's records for patent US12128018 (Kdac Therapeutics, 2024).
pIC50: −log10 of the molar value.

How the values were obtained:
Assay in all cases: Inhibition of Histone Deacetylase Enzymatic Activity
Histone deacetylase 4 = Histone deacetylase 4 (Homo sapiens, UniProt P56524)
Experimental: (§1) Its final concentration in the assay for HDACs 1,2,3,6 is 2 μM.Substrate B was prepared as 2 mM in 100% DMSO. Its final concentration in the assay for HDACs 4,5,7,8,9 is 2 μM.LBH was used as quench inhibitor to stop the reaction at the end point.

Histone deacetylase 5 = Histone deacetylase 5 (Homo sapiens, UniProt Q9UQL6)
Sequence of Histone deacetylase 5 (Q9UQL6 whole entry): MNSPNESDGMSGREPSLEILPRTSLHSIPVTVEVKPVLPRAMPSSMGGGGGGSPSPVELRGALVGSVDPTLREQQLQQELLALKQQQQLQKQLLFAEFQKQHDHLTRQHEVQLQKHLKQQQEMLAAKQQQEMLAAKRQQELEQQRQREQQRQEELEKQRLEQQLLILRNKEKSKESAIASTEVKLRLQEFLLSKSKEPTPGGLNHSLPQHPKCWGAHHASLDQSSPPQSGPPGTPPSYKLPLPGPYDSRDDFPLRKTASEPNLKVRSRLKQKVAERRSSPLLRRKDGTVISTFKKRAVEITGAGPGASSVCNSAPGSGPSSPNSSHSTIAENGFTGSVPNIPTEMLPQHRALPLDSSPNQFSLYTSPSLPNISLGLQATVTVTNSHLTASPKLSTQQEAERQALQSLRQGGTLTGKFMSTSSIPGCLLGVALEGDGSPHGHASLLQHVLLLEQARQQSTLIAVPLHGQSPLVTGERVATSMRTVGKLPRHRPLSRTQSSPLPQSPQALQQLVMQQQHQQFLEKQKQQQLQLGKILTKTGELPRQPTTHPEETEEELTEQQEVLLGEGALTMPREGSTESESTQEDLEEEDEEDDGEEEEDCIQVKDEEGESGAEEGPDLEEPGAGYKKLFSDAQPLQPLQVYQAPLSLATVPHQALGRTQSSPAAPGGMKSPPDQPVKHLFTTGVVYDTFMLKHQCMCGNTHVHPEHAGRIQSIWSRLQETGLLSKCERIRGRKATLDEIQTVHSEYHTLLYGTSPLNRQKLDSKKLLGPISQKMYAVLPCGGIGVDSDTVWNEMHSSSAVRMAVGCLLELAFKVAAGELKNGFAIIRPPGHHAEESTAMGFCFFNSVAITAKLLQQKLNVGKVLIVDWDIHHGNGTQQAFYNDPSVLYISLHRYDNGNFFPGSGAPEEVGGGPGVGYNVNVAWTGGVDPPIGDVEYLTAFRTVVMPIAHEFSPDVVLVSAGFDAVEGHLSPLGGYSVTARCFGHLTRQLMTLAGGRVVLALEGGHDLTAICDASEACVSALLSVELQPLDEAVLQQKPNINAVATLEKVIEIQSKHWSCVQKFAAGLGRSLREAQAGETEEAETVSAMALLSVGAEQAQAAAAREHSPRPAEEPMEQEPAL
Experimental: as §1

Histone deacetylase 6 = biological target: T1, Histone deacetylase 6 (Homo sapiens, UniProt Q9UBN7)
T1 sequence (Q9UBN7 whole entry): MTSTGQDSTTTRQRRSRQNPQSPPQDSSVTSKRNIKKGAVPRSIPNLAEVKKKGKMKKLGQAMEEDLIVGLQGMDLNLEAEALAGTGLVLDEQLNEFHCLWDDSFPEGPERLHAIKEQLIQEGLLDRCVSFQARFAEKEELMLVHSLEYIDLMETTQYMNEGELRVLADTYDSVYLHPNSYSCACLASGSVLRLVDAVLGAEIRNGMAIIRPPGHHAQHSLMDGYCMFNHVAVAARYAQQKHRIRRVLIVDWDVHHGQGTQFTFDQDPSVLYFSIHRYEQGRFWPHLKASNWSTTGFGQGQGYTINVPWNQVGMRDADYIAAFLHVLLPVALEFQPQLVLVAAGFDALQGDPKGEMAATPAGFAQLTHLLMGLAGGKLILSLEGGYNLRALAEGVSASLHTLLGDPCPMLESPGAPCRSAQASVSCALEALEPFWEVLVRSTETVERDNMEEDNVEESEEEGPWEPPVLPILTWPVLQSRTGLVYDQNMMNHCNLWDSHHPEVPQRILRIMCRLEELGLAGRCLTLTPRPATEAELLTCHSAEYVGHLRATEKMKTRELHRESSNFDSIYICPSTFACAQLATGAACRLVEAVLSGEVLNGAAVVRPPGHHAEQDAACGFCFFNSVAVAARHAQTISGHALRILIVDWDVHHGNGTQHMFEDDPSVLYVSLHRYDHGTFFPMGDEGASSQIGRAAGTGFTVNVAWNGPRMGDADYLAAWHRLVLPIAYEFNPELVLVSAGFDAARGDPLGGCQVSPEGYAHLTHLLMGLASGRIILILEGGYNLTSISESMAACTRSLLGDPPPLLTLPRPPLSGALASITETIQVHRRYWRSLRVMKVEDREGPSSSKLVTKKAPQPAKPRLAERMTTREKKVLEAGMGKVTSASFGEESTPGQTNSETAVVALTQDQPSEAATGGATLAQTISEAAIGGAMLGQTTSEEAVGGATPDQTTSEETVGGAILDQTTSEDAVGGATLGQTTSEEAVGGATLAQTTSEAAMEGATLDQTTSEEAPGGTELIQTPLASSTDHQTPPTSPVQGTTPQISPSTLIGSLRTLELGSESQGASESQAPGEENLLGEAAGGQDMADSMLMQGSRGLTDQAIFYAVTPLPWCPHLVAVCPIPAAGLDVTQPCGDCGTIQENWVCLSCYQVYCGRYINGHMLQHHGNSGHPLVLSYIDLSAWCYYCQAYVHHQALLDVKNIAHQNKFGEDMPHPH
Experimental: as §1

Histone deacetylase 7 = biological target: T2, Histone deacetylase 7 (Homo sapiens, UniProt Q8WUI4)
T2 sequence (Q8WUI4 whole entry): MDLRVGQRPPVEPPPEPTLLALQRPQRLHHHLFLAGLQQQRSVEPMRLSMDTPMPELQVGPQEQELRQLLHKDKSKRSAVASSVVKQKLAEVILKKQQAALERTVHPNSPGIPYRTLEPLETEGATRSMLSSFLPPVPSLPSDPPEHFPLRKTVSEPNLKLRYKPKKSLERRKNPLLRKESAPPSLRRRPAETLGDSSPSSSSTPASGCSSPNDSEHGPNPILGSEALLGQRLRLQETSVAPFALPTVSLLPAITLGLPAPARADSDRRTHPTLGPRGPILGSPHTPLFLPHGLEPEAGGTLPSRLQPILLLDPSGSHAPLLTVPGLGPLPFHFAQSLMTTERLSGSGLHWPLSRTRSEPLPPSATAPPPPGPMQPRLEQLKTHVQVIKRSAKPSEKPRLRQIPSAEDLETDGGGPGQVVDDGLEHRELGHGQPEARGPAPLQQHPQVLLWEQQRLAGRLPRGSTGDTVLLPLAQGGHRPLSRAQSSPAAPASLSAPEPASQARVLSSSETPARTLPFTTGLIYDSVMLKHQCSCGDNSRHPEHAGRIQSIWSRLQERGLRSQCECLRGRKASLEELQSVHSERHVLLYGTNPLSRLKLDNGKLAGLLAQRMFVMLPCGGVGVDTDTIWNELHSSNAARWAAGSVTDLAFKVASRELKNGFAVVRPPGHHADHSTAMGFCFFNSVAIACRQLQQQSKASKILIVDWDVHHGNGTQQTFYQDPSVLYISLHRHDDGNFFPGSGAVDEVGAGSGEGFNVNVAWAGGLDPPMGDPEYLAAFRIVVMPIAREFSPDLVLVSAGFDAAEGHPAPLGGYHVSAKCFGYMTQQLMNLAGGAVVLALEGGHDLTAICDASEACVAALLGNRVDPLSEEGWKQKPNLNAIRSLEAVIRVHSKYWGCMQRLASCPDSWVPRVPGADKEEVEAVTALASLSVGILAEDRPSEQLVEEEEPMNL
Experimental: as §1

Histone deacetylase 8 = biological target: T3, Histone deacetylase 8 (Homo sapiens, UniProt Q9BY41)
T3 sequence (Q9BY41 whole entry): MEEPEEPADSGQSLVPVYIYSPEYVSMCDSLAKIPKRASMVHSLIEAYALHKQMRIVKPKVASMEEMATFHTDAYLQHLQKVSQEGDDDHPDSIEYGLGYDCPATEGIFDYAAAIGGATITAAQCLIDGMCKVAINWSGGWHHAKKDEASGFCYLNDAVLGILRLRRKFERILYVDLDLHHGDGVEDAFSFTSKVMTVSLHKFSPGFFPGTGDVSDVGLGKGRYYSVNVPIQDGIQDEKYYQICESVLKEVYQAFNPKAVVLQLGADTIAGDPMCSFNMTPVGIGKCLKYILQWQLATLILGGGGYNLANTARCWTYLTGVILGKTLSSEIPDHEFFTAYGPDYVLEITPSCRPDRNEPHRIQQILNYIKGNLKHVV
Experimental: as §1

Histone deacetylase 9 = Histone deacetylase 9 (Homo sapiens, UniProt Q9UKV0)
Sequence of Histone deacetylase 9 (Q9UKV0 whole entry): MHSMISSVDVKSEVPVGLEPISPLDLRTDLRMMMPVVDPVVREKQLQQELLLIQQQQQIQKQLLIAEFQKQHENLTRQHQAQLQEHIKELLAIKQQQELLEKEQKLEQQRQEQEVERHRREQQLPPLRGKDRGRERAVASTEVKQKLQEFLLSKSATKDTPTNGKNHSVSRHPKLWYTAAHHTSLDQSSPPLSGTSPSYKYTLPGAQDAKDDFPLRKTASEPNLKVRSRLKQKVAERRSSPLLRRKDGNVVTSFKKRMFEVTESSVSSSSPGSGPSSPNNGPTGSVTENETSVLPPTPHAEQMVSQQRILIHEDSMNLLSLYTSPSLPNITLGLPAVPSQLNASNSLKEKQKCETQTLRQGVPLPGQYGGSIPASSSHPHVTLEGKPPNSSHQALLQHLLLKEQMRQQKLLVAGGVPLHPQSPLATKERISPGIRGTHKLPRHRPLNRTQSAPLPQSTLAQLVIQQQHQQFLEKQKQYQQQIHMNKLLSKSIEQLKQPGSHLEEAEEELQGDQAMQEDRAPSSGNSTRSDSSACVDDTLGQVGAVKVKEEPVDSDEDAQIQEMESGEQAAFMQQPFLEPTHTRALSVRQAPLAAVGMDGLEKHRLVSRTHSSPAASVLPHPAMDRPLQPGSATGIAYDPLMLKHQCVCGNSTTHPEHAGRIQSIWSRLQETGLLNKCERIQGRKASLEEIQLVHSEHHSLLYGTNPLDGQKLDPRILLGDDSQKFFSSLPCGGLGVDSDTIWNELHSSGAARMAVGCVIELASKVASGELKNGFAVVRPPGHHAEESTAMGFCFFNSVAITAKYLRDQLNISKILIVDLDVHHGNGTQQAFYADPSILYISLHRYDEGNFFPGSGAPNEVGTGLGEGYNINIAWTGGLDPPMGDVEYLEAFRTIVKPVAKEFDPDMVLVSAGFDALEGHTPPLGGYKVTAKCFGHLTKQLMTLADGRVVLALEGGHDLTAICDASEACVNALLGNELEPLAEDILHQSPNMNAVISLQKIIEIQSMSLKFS
Experimental: as §1

Measured: pIC50

Sequence of Histone deacetylase 4 (P56524 whole entry): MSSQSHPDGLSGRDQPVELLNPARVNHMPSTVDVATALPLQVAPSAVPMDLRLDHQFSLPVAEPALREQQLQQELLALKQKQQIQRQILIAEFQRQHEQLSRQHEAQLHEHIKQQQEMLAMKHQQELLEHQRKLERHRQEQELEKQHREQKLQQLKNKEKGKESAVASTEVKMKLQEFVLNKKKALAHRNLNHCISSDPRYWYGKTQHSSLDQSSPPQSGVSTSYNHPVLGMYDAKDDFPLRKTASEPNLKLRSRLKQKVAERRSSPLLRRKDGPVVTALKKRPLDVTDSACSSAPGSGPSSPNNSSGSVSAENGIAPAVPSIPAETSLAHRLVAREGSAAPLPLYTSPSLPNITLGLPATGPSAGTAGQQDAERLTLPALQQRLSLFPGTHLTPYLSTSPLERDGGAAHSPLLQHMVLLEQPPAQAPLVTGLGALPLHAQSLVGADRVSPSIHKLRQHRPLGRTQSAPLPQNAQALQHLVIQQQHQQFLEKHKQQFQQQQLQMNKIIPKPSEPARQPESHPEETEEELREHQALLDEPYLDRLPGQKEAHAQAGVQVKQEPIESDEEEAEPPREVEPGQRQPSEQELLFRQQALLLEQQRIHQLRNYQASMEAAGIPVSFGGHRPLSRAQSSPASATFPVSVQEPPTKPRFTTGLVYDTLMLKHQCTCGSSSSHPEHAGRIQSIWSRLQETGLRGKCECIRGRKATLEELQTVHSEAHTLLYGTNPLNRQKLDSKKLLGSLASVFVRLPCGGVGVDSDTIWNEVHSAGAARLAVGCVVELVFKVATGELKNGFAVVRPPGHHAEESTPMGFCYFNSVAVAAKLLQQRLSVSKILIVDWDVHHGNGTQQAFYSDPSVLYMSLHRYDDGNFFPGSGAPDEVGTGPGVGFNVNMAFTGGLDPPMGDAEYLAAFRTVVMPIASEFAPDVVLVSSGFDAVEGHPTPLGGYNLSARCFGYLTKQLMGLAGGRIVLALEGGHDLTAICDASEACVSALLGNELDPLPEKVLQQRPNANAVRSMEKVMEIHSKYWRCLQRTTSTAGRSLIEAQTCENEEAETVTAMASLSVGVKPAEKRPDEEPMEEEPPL

CC(=O)Nc1ccc(C(=O)Nc2ccc(F)cc2N)cc1 [US12128018, Compound I-1]
< 4.52: all assays above
